This data set is described as follows: gradient 5% acetonitrile 3 min, to 50% in 2 min, to 85% in 15 min, held 3 min, 100 µL/min. The settings on record: column: Zorbax Extend-C18 2.1 x 50 mm; eluents: water / acetonitrile, 0.1% formic acid. In short, it runs like this: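 In both positive and negative ionization mode, a quadrupole time-of-flight mass spectrometer coupled to HPLC analyzed pure standards run in mixtures of ~100 molecules. The Zorbax Extend-C18 column (2.1 × 50 mm, 1.8 μm) was operated at 100 μL/min with water and acetonitrile, each containing 0.1% formic acid. The dead volume was 40 μL and the dwell volume 900 μL. Retention time came from adduct peaks that were computationally picked and individually inspected by hand.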
The compound `COc1ccc(/C=C2\Cc3ccccc3C2=O)cc1OC` came in with an RP-LC retention time of 892 s.

`O=S(=O)(Nc1cccc(-c2nc(-c3cccc(Br)c3)co2)c1)c1cccs1` gave an RP-LC retention time of 1230 s.

`Cc1ccc(-c2ccc(-n3nc(C)c(S(=O)(=O)NC4CC4)c3C)nn2)cc1` yielded an RP-LC retention time of 944 s.

Consider `COc1ccc(-c2noc(COC(=O)C3=CN(C)S(=O)(=O)N=C3C)n2)cc1`, for which the RP-LC retention time came to 926 s.

In the case of `COc1ccc(NC(=O)C2CCN(S(=O)(=O)c3c(C)nn(-c4ccccc4)c3C)CC2)c(OC)c1`, the RP-LC retention time turned out to be 940 s.

Compound `Cc1ccc(N2CC(C(=O)N(C)C)CC2=O)cc1` (stereo not drawn) yielded an RP-LC retention time of 673 s.

On to `C=CCn1c(=O)c2ccccc2n(Cc2nc(-c3ccc(OC)cc3)no2)c1=O`, for which the RP-LC retention time worked out at 1020 s.

Take `O=C(c1cnn2cccnc12)N1CCCC1c1ccc(Cl)cc1` (stereo not drawn): the RP-LC retention time is 766 s.

For `COc1ccc(C2C=C(c3ccc4c(c3)OCO4)Oc3c2c(=O)oc2ccccc32)cc1OC` (stereo not drawn), the RP-LC retention time is 1090 s.

As to `COc1cc(C)c(C)cc1S(=O)(=O)NCC1CCN(C(=O)Oc2ccccc2)CC1`, the RP-LC retention time was determined as 964 s.

Take `CCOC(=O)N1CCN(C(=O)c2cc(S(=O)(=O)N3CCOCC3)ccc2OC)CC1`: the RP-LC retention time was 636 s.

For `Cc1cc(C)cc(C(=O)NC2CCN(c3cc(-c4ccc(Cl)cc4)[nH]n3)C2)c1` (stereo not drawn), the RP-LC retention time is 883 s.

Compound `CC(=O)N1CCN(c2nc3c(s2)CC(C(=O)NCc2cc(C)ccc2C)CC3)CC1` (stereo not drawn) returned an RP-LC retention time of 576 s.

In turn, `Cc1onc(-c2ccccc2)c1C(=O)Nc1nc(-c2ccc(F)cc2)cs1` returned an RP-LC retention time of 1090 s.

`CCc1nc2cc(N3CCCC(C(=O)NCc4cccnc4)C3)cnc2nc1CC` (stereo not drawn) registered an RP-LC retention time of 600 s.

Compound `CCn1c(=O)sc2cc(S(=O)(=O)N3CCC(C(=O)NCc4ccc(OC)cc4)CC3)ccc21` registered an RP-LC retention time of 978 s.

Compound `CCOC(=O)Cc1ccc(NC(=O)N2CCN(c3ccc(=O)n(-c4ccc(F)cc4)n3)CC2)cc1` displayed an RP-LC retention time of 789 s.

Consider `COc1ccc(-c2cn3cccnc3n2)cc1NC(=O)c1ccccc1F`, for which the RP-LC retention time was 706 s.

Regarding `O=C(NC1CCCC1)C1CCCN(c2nc3ccsc3c(=O)n2Cc2ccc(F)cc2)C1` (stereo not drawn), the RP-LC retention time was found to be 913 s.

Turning to `COc1ccc(NS(=O)(=O)c2cc3n(c2)CCCN(C)C3=O)cc1`, the RP-LC retention time came out at 650 s.

On to `CCC(CC)C(=O)N1CCC2(CC1)CN(C)CC2c1nc(-c2ccncc2)n[nH]1` (stereo not drawn), for which the RP-LC retention time amounted to 565 s.

`Fc1cnccc1CN1CC[C@@H]2CN(Cc3ccccc3)[C@@H]2C1` showed an RP-LC retention time of 597 s.

Regarding `CC(C)CCNC(=O)c1cccc2c1CCN2C(=O)C1CC1`, the RP-LC retention time stood at 831 s.

For `Cc1c(C(=O)Nc2ccc(CC(=O)NC3CC3)cc2)cnn1-c1ccccc1`, the RP-LC retention time turned out to be 675 s.

The compound `O=C(CCc1c(-c2ccc(Cl)cc2)nc2ccccn12)NCCC1=CCCCC1` showed an RP-LC retention time of 756 s.

As to `Cn1c(SCC(=O)c2ccc(F)cc2)nnc1-c1ccncc1`, the RP-LC retention time came to 620 s.

Compound `Cc1cc(OCC(=O)N[C@@H](Cc2ccccc2)C(=O)O)c2c3c(c(=O)oc2c1)CCC3` yielded an RP-LC retention time of 835 s.

The compound `COC(=O)c1ccc(N2C=C(C#N)S(=O)(=O)c3ccc(F)cc32)cc1` had an RP-LC retention time of 875 s.

As for `O=C(NCc1ccc(F)cc1)N1CCN(c2nc3cccnc3n(Cc3ccccc3)c2=O)CC1`, the RP-LC retention time is 1020 s.

For `CC(C)NS(=O)(=O)c1ccc(Cl)c(-c2nnc(-c3ccccc3)o2)c1`, the RP-LC retention time amounted to 977 s.

`CC1CCN(c2cc(-n3cnc(C(=O)N4CCN(c5ccccn5)CC4)c3)ncn2)CC1`: the RP-LC retention time was determined as 675 s.

`O=C(CNC(=O)C1CCCCC1)Nc1ccc(S(=O)(=O)Nc2ccccc2Cl)cc1` showed an RP-LC retention time of 792 s.

The compound `N#Cc1ccsc1NC(=O)CCSc1ccccc1` came in with an RP-LC retention time of 879 s.

`O=C(Cn1ccc2c(SCc3ccc(F)cc3)nccc21)NCc1ccc2c(c1)OCO2` displayed an RP-LC retention time of 744 s.

The compound `O=C(NCc1cc(F)cc(F)c1)c1cn2cc(Cl)ccc2n1` returned an RP-LC retention time of 857 s.

Take `Cc1ccc(CNC(=O)C2=CCN(Cc3cccc(F)c3)CC2)o1`: the RP-LC retention time stood at 626 s.

`O=C(Cn1cnc2nc(N3CCC(C(=O)NC4CC4)CC3)sc2c1=O)NCc1ccccc1` returned an RP-LC retention time of 637 s.

On to `Cc1ccc(CNC(=O)C2CCCN2S(=O)(=O)c2cc3c(cc2Cl)NC(=O)CO3)cc1` (stereo not drawn), for which the RP-LC retention time was 786 s.

As to `CCOCCCNCc1ccc(-c2cccc(Cl)c2)o1`, the RP-LC retention time was 687 s.

`Fc1ccc(Cn2cc(-c3noc(-c4ccc5cc[nH]c5c4)n3)nn2)cc1` had an RP-LC retention time of 952 s.

Compound `CCc1cc(=O)n(CC(=O)Nc2cccc(C)c2C)c(N2CCOCC2)n1` had an RP-LC retention time of 764 s.

`COc1ccc(-c2nc(Nc3c(C)n[nH]c3C)sc2C)cc1`: the RP-LC retention time turned out to be 630 s.

Consider `O=C(Cn1ccc2ccccc21)N1CCN(c2ccc(C(F)(F)F)cn2)CC1`, for which the RP-LC retention time is 982 s.

For `Cc1ccc(C)c(C(=O)N2CCN(c3cc(-c4cccs4)[nH]n3)CC2)c1`, the RP-LC retention time is 847 s.

For the compound `CC(C)(C)C1CCc2[nH]nc(C(=O)NC3CC3)c2C1` (stereo not drawn), the RP-LC retention time is 843 s.

Compound `CCCc1noc(-c2ccc(-n3ncc(C(=O)N4CCOCC4)c3C)nc2)n1` showed an RP-LC retention time of 833 s.

Turning to `Cc1cc(C)cc(Oc2nccn3c(=O)n(CC(=O)NCc4ccccc4)nc23)c1`, the RP-LC retention time turned out to be 860 s.

The compound `COc1cccc(NS(=O)(=O)c2cn(C(C)C)c3ncccc23)c1` came in with an RP-LC retention time of 846 s.

For `O=C(Cn1c(=O)c2cc(-c3ccco3)nn2c2ncccc21)NC1CCCCC1`, the RP-LC retention time is 793 s.

For `Nc1ncnc(N2CCc3ccccc32)c1[N+](=O)[O-]`, the RP-LC retention time stood at 697 s.

Compound `Cc1nn(CC(=O)NC2CCCC2)c(=O)c2c(-n3cccc3)n(-c3cccc(F)c3)nc12` displayed an RP-LC retention time of 964 s.

In the case of `O=C(Nc1ccccc1F)C1CCN(S(=O)(=O)c2cc(C(=O)N3CCCCCC3)cs2)CC1`, the RP-LC retention time stood at 916 s.

As to `CCN(CC)S(=O)(=O)c1ccc2c(c1)N(CC(=O)NC1CCCC1)C(=O)C1CCCCN21` (stereo not drawn), the RP-LC retention time was 927 s.

On to `COCCCN1C(=O)c2cc(-c3ccc(OC)cc3)nn2CC1(C)C(=O)NCc1ccccc1` (stereo not drawn), for which the RP-LC retention time came to 826 s.

As to `CCc1noc(-c2cc(=O)n(CC(=O)NCc3ccc(SC)cc3)c3ccccc23)n1`, the RP-LC retention time worked out at 928 s.

In turn, `COc1ccc(-c2noc(Cc3nnc(-c4ccc(OC)cc4)o3)n2)cc1` registered an RP-LC retention time of 949 s.

`CCCCN(Cc1nc2nc(C)cc(C)n2n1)C(=O)c1ccccc1` showed an RP-LC retention time of 757 s.

On to `CCc1nnc(NC(=O)CSc2nccn2Cc2ccc3c(c2)OCO3)s1`, for which the RP-LC retention time amounted to 586 s.

Compound `CC(C)c1nc(-c2ccc(OC3CCN(C(=O)C4(c5ccccc5)CC4)C3)cc2)no1` (stereo not drawn) returned an RP-LC retention time of 1120 s.

Regarding `CC(=O)N1CCCSc2ccc(S(=O)(=O)N3CCN(c4cc(Cl)ccc4C)CC3)cc21`, the RP-LC retention time amounted to 1180 s.

`C=Cc1ccc(CSc2ccc(-n3nc4c(c3C)CCC4)nn2)cc1` registered an RP-LC retention time of 1070 s.

For `Cc1cc(C)cc(NC(=O)CSc2ccc(N3CCCC(C(=O)NC4CC4)C3)nn2)c1` (stereo not drawn), the RP-LC retention time was found to be 690 s.

For `CC(C)CCNC(=O)Cc1cn(C)c2ncccc12`, the RP-LC retention time was determined as 679 s.

`O=C(CCn1nnc2cc(-c3noc(COc4ccc(Cl)cc4)n3)ccc21)N1CCOCC1` displayed an RP-LC retention time of 866 s.

In turn, `Cc1ccnc(NC(=O)C2CCCN(c3cc(=O)n(C)c(=O)n3C)C2)c1` (stereo not drawn) came in with an RP-LC retention time of 570 s.

`CCCCn1cc(S(=O)(=O)Nc2ccc(C)cc2F)c2cccnc21` displayed an RP-LC retention time of 980 s.

The compound `CN1C(=O)C2(CCN(C(=O)Nc3ccccc3)C2)c2ccccc21` (stereo not drawn) yielded an RP-LC retention time of 764 s.

As for `COc1ccc(-c2nc(-c3ccc4c(c3)ncn4CCN3CCCCC3)no2)cc1OC`, the RP-LC retention time was 630 s.

Turning to `O=C(Nc1ccccc1)N1CCc2nnc(C3CC3)n2CC1`, the RP-LC retention time stood at 596 s.

For `CCOc1ccc(CCNC(=O)CN2C(=O)CSc3cccn3-c3ccccc32)cc1OCC`, the RP-LC retention time was found to be 939 s.

Regarding `COc1cc(NC(=O)[C@@H]2[C@H](c3cc(OC)c(OC)c(OC)c3)c3cc4c(cc3[C@H](O)[C@H]2CO)OCO4)cc(OC)c1`, the RP-LC retention time was 767 s.

`COc1ccc(-c2noc(-c3ccc(N4CCC(N5CCCCC5)CC4)nc3)n2)cc1`: the RP-LC retention time was 738 s.

In turn, `CN(C)c1ccc(C(=O)N2CCC(c3cc(N)on3)CC2)cc1` registered an RP-LC retention time of 614 s.

Compound `CCc1ccc2[nH]c3c(c(=O)c2c1)CN(CC(=O)NCc1ccc(SC)cc1)CC3` showed an RP-LC retention time of 889 s.

In turn, `Cc1cc(NC(=O)Cn2c(-c3ccc(F)cc3)ncc(C#N)c2=O)ccc1Br` registered an RP-LC retention time of 1080 s.

Take `COc1ccc(CNC(=O)c2[nH]c3cc(C)sc3c2CN(C)C)cc1`: the RP-LC retention time was determined as 664 s.

In turn, `CCCC(NC(=O)c1cccc(OC)c1)C(=O)Nc1nc2ccccc2[nH]1` (stereo not drawn) showed an RP-LC retention time of 696 s.

In the case of `COc1ccc(C(C)NC(=O)C2CCCN(c3nccnc3Sc3ccc(C)cc3)C2)cc1` (stereo not drawn), the RP-LC retention time amounted to 1090 s.

For the origin of these results see the METLIN SMRT retention time set (Domingo-Almenara et al. 2019).
